Key:
[1] = biological target: Phosphatidylinositol 5-phosphate 4-kinase type-2 gamma (Homo sapiens, UniProt Q8TBX8)
Description: Inhibition of GST-fused human recombinant chimeric PI5P4Kgamma+ harboring PI5P4Kalpha-like mutations expressed in Escherichia coli BL21(DE3) incubated for 60 mins by ADP-Glo assay

[2] = Apparent permeability across apical to basolateral side in dog MDCK-MDR1 cells; type: ADME, cell-based, Canis lupus familiaris
[3] = biological target: T1, Phosphatidylinositol 5-phosphate 4-kinase type-2 beta (Homo sapiens, UniProt P78356); experiment: Inhibition of GST-fused human recombinant PI5P4Kbeta expressed in Escherichia coli BL21(DE3) incubated for 60 mins by ADP-Glo assay
T1 sequence (P78356 whole entry): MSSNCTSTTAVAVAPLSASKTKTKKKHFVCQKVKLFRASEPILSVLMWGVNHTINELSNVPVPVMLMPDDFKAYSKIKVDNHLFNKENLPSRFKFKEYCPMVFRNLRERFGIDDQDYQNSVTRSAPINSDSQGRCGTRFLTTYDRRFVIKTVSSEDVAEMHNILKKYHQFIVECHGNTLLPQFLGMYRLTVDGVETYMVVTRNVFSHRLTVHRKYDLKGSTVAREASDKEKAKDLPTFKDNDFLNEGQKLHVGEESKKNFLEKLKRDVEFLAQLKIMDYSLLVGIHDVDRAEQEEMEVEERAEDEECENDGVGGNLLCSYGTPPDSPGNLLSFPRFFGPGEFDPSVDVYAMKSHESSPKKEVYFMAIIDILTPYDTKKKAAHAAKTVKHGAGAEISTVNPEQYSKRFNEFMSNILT

Chain of Phosphatidylinositol 5-phosphate 4-kinase type-2 gamma (Q8TBX8 2-421 limits assumed, change not shown): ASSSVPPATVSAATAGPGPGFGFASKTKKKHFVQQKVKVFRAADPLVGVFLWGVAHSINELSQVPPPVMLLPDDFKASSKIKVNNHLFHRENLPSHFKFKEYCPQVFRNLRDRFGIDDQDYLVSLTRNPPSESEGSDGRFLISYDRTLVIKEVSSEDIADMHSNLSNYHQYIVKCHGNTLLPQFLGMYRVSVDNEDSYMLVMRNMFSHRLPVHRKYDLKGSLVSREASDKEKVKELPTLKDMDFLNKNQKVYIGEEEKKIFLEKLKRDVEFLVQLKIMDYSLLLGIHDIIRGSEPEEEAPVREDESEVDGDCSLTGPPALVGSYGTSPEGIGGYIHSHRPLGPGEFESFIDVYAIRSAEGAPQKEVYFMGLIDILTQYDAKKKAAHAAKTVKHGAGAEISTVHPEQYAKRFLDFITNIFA

SMILES | pIC50 [1] | Papp A→B [2] [×10⁻⁶ cm/s] | IC50 [3] [µM]
Cc1ncccc1-c1cc2ncnc(Nc3ccc4ncoc4c3)c2s1 | 6.3 |  | 
CSc1ccc(Nc2ncnc3cc(-c4cccnc4Cl)sc23)cc1 | 8.1 | 12.9 | 
CCc1ccc(Nc2ncnc3sc(-c4cccnc4C)cc23)cc1 | 6.4 |  | 
COc1ccc(Nc2ncnc3sc(-c4cccnc4C)cc23)cc1 | 5.7 |  | 
CSc1ccc(Nc2ncnc3sc(-c4cnoc4)cc23)cc1 | 7.4 |  | 
CSc1ccc(Nc2ncnc3sc(-c4cccnc4Cl)cc23)cc1 | 7.7 |  | 
Cc1ncccc1-c1cc2ncnc(Nc3ccc(N4CCCC4=O)cc3)c2s1 | 8.1 | 3.15 | 
CS(=O)(=O)c1ccc(Nc2ncnc3sc(-c4cn[nH]c4)cc23)cc1 | 7.8 |  | 
CS(=O)(=O)c1ccc(Nc2ncnc3cc(-c4cccnc4Cl)sc23)cc1 | 7.9 | 1.33 | 
Cc1ncccc1-c1cc2c(Nc3ccc(S(C)(=O)=O)cc3)ncnc2s1 | 7.7 | 1.33 | > 10
Cc1ccc(Nc2ncnc3sc(-c4cccnc4C)cc23)cc1 | 5.8 |  | 
CS(=O)(=O)c1ccc(Nc2ncnc3scc(Cl)c23)cc1 |  | 14.2 | 
Cc1ncccc1-c1cc2ncnc(Nc3ccc(C4CC4)cc3)c2s1 | 7.3 | 9.95 | 
Cc1ncccc1-c1cc2c(Nc3ccc(C4CC4)cc3)ncnc2s1 | 7 |  | 
CS(=O)(=O)c1ccc(Nc2ncnc3sc(-c4ccnc(Cl)c4)cc23)cc1 | 7.2 |  | 
Cc1ccc(Nc2ncnc3sc(-c4cccnc4C)cc23)cc1C | 5.9 |  | 
Cn1cc(-c2cc3c(Nc4ccc(S(C)(=O)=O)cc4)ncnc3s2)cn1 | 7.4 | 2.88 | > 10
CSc1ccc(Nc2ncnc3sc(-c4ccncc4C)cc23)cc1 | 7.7 | 3.7 | 
CSc1ccc(Nc2ncnc3sc(-c4c(C)noc4C)cc23)cc1 | 7.6 |  | 
Cc1ccc(Nc2ncnc3sc(-c4cccnc4C)cc23)c(C)c1 | 5.4 |  | 
CS(=O)(=O)c1ccc(Nc2ncnc3sc(-c4cccnc4)cc23)cc1 | 7.5 |  | 
COc1cnccc1-c1cc2c(Nc3ccc(S(C)(=O)=O)cc3)ncnc2s1 | 7.5 |  | 
CSc1ccc(Nc2ncnc3sc(-c4cccnc4C)cc23)cc1 | 7.3 |  | 
Cc1cccc(Nc2ncnc3sc(-c4cccnc4C)cc23)c1 | 5.3 |  | 
CS(=O)(=O)c1ccc(Nc2ncnc3sc(-c4ccncc4)cc23)cc1 | 7.7 |  | 
CS(=O)(=O)c1ccc(Nc2ncnc3sc(-c4cccnc4Cl)cc23)cc1 |  | 4.73 | > 10
Cc1ccncc1-c1cc2c(Nc3ccc(S(C)(=O)=O)cc3)ncnc2s1 | 7.9 | 2.45 | 
Cc1cnccc1-c1cc2c(Nc3ccc(S(C)(=O)=O)cc3)ncnc2s1 |  | 3.13 | > 10
